Reference: patent publication US7501538B2, “Aryl and heteroaryl compounds, compositions and methods of use” (TransTech Pharma, Inc., priority 2003, dated 2009)
Read-outs that look alike come from different tables or passages of the source.

How the values were obtained:
UT-7 cells (UT7/EPO) = experiment: Cell Proliferation Assay (AlamarBlue), UT-7; format: cell-based; conditions: UT-7 assay, at or below 1000 micromolar compound concentration
Procedure: UT-7 and FDC-P1 cell proliferation was assessed by AlamarBlue (BioSource International Inc., Camarillo, Calif. 93012, USA). Briefly, the cells were plated into 96-well Costar cell culture plate (Corning Incorporated, Corning, N.Y. 14831, USA) at 7000 cells/well and 4000 cells/well for UT7/EPO and FDC-P1 cell line, respectively. The test compound and/or vehicle was added to each well with a final concentration of 1% DMSO and incubated in an atmosphere of 5% CO2 at 37° C. for 66 hours. After a further 6 hour incubation in the presence of AlamarBlue, fluorescent intensity was measured using a SpectraMax Gemini (Molecular Devices, Sunnyvale, Calif. 94089, USA) plate reader, with excitation at 530 nm and emission at 590 nm. The Percent Increase=((RFU Test-RFU Medium)/(RFU Vehicle-RFU Medium)-1)*100. Recombinant human EPO (Research Diagnostics, Inc., Flanders, N.J. 07836, USA) was used in the assay as a positive control.

receptors for EPO = conditions: cited from earlier work

Q: For `CC(C)(C)c1ccc(COc2ccc(C[C@H](NC(=O)c3cc(Cl)ccc3NCc3cccc4ccccc34)C(=O)O)cc2)cc1` [Example 4, (2S)-3-[4-(4-tert-butyl-benzyloxy)-phenyl]-2-{5-chloro-2-[(naphthalen-1-ylmethyl)-amino]-benzoylamino}-propionic acid], which “cell proliferation (Percent Increase)” value (UT-7 cells (UT7/EPO)) is on record?
A: The value was under 20%.

Q: For “EPO: 165 amino acid, 34 kilodalton (kDa) glycoprotein hormone regulating red blood cell production”, which Kd (receptors for EPO; high affinity receptor, read-out: Kd, high affinity receptors for EPO) is on record?
A: Its Kd is 75 to 100 pM.

Q: What about the Kd (receptors for EPO; low affinity receptor, read-out: Kd, low affinity receptors for EPO) of the same compound?
A: The Kd was 220 to 800 pM.
